In ChEMBL document CHEMBL3885881, “DrugMatrix”:

Organism: Rattus norvegicus
Experiment: DrugMatrix - Regimen: Daily Repeat
Assay type: toxicity, organism-based, Sprague-Dawley
Parameters: regimen Daily Repeat, gender Male, age 6-8 weeks
Settings: in vivo, po, route oral GAVAGE, vehicle .5 % CMC; for ABSOLUTE BASOPHIL / ABSOLUTE EOSINOPHIL / ABSOLUTE LYMPHOCYTE / ABSOLUTE MONOCYTE / ABSOLUTE SEGMENTED NEUTROPHIL / BASOPHIL / EOSINOPHIL / ERYTHROCYTE COUNT / HEMATOCRIT / HEMOGLOBIN / LEUKOCYTE COUNT / LYMPHOCYTE / MEAN CORPUSCULAR HEMOGLOBIN / MEAN CORPUSCULAR HEMOGLOBIN CONCENTRATION / MEAN CORPUSCULAR VOLUME / MONOCYTE / NEUTROPHIL / NUCLEATED RED BLOOD CELLS / PLATELET COUNT: tissue Blood; for ALANINE AMINOTRANSFERASE / ALBUMIN / ALKALINE PHOSPHATASE / ASPARTATE AMINOTRANSFERASE / BLOOD UREA NITROGEN / CARBON DIOXIDE / CHLORIDE / CHOLESTEROL / CREATINE PHOSPHOKINASE / CREATININE / GLUCOSE / LACTATE DEHYDROGENASE / LIPASE / PHOSPHORUS / POTASSIUM / SODIUM / TOTAL BILIRUBIN / TOTAL PROTEIN / URIC ACID: tissue Plasma
[1] = 0 mg/kg, 72 h, dose level Control, time 3 day
[2] = 0 mg/kg, 120 h, dose level Control, time 5 day
[3] = 4.5 mg/kg, 72 h, dose level Low, time 3 day

SMILES: CC(C(=O)O)c1ccc(-c2ccccc2)c(F)c1 (centres undefined) [FLURBIPROFEN]
- ABSOLUTE BASOPHIL [1]: 0 CELLS/uL
- ABSOLUTE EOSINOPHIL [1]: 222.83 CELLS/uL
- ABSOLUTE LYMPHOCYTE [1]: 14453 CELLS/uL
- ABSOLUTE MONOCYTE [1]: 0 CELLS/uL
- ABSOLUTE SEGMENTED NEUTROPHIL [1]: 1490.83 CELLS/uL
- BASOPHIL [1]: 0%
- EOSINOPHIL [1]: 1.33%
- ERYTHROCYTE COUNT [1]: 5.76 x10E6/uL
- HEMATOCRIT [1]: 36.52%
- HEMOGLOBIN [1]: 13.45 G/DL
- LEUKOCYTE COUNT [1]: 16.17 x10E3/uL
- LYMPHOCYTE [1]: 89.33%
- MEAN CORPUSCULAR HEMOGLOBIN [1]: 23.37 pg
- MEAN CORPUSCULAR HEMOGLOBIN CONCENTRATION [1]: 36.85 G/DL
- MEAN CORPUSCULAR VOLUME [1]: 63.47 fL
- MONOCYTE [1]: 0%
- NEUTROPHIL [1]: 9.33%
- NUCLEATED RED BLOOD CELLS [1]: 0 /100WBC
- PLATELET COUNT [1]: 1239.5 x10E3/uL
- ALANINE AMINOTRANSFERASE [1]: 43.83 u/L
- ALBUMIN [1]: 4.27 G/DL
- ALKALINE PHOSPHATASE [1]: 398.83 u/L
- ASPARTATE AMINOTRANSFERASE [1]: 81.17 u/L
- BLOOD UREA NITROGEN [1]: 17.67 mg/dL
- CARBON DIOXIDE [1]: 27.5 mmol/L
- CHLORIDE [1]: 99.17 MEQ/L
- CHOLESTEROL [1]: 74 mg/dL
- CREATINE PHOSPHOKINASE [1]: 331.5 u/L
- CREATININE [1]: 0.2 mg/dL
- GLUCOSE [1]: 171.33 mg/dL
- LACTATE DEHYDROGENASE [1]: 241.67 u/L
- LIPASE [1]: 9.5 u/L
- PHOSPHORUS [1]: 12.25 mg/dL
- POTASSIUM [1]: 6.33 MEQ/L
- SODIUM [1]: 141.28 MEQ/L
- TOTAL BILIRUBIN [1]: 0.15 mg/dL
- TOTAL PROTEIN [1]: 5.98 G/DL
- URIC ACID [1]: 1.63 mg/dL
- ABSOLUTE BASOPHIL [2]: 0 CELLS/uL
- ABSOLUTE EOSINOPHIL [2]: 148.67 CELLS/uL
- ABSOLUTE LYMPHOCYTE [2]: 16020.5 CELLS/uL
- ABSOLUTE MONOCYTE [2]: 29.17 CELLS/uL
- ABSOLUTE SEGMENTED NEUTROPHIL [2]: 1468.33 CELLS/uL
- BASOPHIL [2]: 0%
- EOSINOPHIL [2]: 1%
- ERYTHROCYTE COUNT [2]: 5.78 x10E6/uL
- HEMATOCRIT [2]: 35.77%
- HEMOGLOBIN [2]: 13.4 G/DL
- LEUKOCYTE COUNT [2]: 17.67 x10E3/uL
- LYMPHOCYTE [2]: 90.5%
- MEAN CORPUSCULAR HEMOGLOBIN [2]: 23.22 pg
- MEAN CORPUSCULAR HEMOGLOBIN CONCENTRATION [2]: 37.47 G/DL
- MEAN CORPUSCULAR VOLUME [2]: 61.92 fL
- MONOCYTE [2]: 0.17%
- NEUTROPHIL [2]: 8.33%
- NUCLEATED RED BLOOD CELLS [2]: 0.17 /100WBC
- PLATELET COUNT [2]: 1255.5 x10E3/uL
- ALANINE AMINOTRANSFERASE [2]: 46.5 u/L
- ALBUMIN [2]: 4.38 G/DL
- ALKALINE PHOSPHATASE [2]: 336 u/L
- ASPARTATE AMINOTRANSFERASE [2]: 76.5 u/L
- BLOOD UREA NITROGEN [2]: 20 mg/dL
- CARBON DIOXIDE [2]: 27.5 mmol/L
- CHLORIDE [2]: 101 MEQ/L
- CHOLESTEROL [2]: 71.33 mg/dL
- CREATINE PHOSPHOKINASE [2]: 231.83 u/L
- CREATININE [2]: 0.37 mg/dL
- GLUCOSE [2]: 168.83 mg/dL
- LACTATE DEHYDROGENASE [2]: 174 u/L
- LIPASE [2]: 8.67 u/L
- PHOSPHORUS [2]: 11.48 mg/dL
- POTASSIUM [2]: 6.82 MEQ/L
- SODIUM [2]: 143.8 MEQ/L
- TOTAL BILIRUBIN [2]: 0.2 mg/dL
- TOTAL PROTEIN [2]: 5.98 G/DL
- URIC ACID [2]: 1.83 mg/dL
- ABSOLUTE BASOPHIL [3]: 0 CELLS/uL
- ABSOLUTE EOSINOPHIL [3]: 292.33 CELLS/uL
- ABSOLUTE LYMPHOCYTE [3]: 14732.33 CELLS/uL
- ABSOLUTE MONOCYTE [3]: 0 CELLS/uL
- ABSOLUTE SEGMENTED NEUTROPHIL [3]: 2542 CELLS/uL
- BASOPHIL [3]: 0%
- EOSINOPHIL [3]: 1.67%
- ERYTHROCYTE COUNT [3]: 5.5 x10E6/uL
- HEMATOCRIT [3]: 34.7%
- HEMOGLOBIN [3]: 12.83 G/DL
- LEUKOCYTE COUNT [3]: 17.57 x10E3/uL
- LYMPHOCYTE [3]: 83.67%
- MEAN CORPUSCULAR HEMOGLOBIN [3]: 23.33 pg
- MEAN CORPUSCULAR HEMOGLOBIN CONCENTRATION [3]: 36.97 G/DL
- MEAN CORPUSCULAR VOLUME [3]: 63.03 fL
- MONOCYTE [3]: 0%
- NEUTROPHIL [3]: 14.67%
- NUCLEATED RED BLOOD CELLS [3]: 0 /100WBC
- PLATELET COUNT [3]: 1184.67 x10E3/uL
- ALANINE AMINOTRANSFERASE [3]: 49.67 u/L
- ALBUMIN [3]: 3.57 G/DL
- ALKALINE PHOSPHATASE [3]: 319 u/L
- ASPARTATE AMINOTRANSFERASE [3]: 69.33 u/L
- BLOOD UREA NITROGEN [3]: 13.33 mg/dL
- CARBON DIOXIDE [3]: 30 mmol/L
- CHLORIDE [3]: 99.67 MEQ/L
- CHOLESTEROL [3]: 69 mg/dL
- CREATINE PHOSPHOKINASE [3]: 219.67 u/L
- CREATININE [3]: 0.25 mg/dL
- GLUCOSE [3]: 168.33 mg/dL
- LACTATE DEHYDROGENASE [3]: 123.67 u/L
- LIPASE [3]: 8.33 u/L
- PHOSPHORUS [3]: 12.13 mg/dL
- POTASSIUM [3]: 6.57 MEQ/L
- SODIUM [3]: 143.2 MEQ/L
- TOTAL BILIRUBIN [3]: 0.23 mg/dL
- TOTAL PROTEIN [3]: 5.37 G/DL
- URIC ACID [3]: 1.77 mg/dL
